In patent publication US8871713B2, “Formulations of growth hormone releasing factor (GRF) molecules with improved stability” (Theratechnologies Inc., priority 2013, dated 2014):
“Also recorded” adds a separate entry of the source. *1 amine or outer side, *2 acyl side, *3 side chain or, on linkers, in order; H or OH if unused. [ ]: non-standard residue; d: D form. The star is where a group is joined. βAsp = O=C(O)[C@H](CC(=O)[*:2])N[*:1]; Hexenoyl(3E) = CC/C=C/CC(=O)*

Experiments:
[1] = target: T1, human GRF receptor (Homo sapiens, UniProt Q02643); assay: Reporter gene assay in BHK cells (cAMP-inducible alkaline phosphatase); type: cell-based; conditions: for Emax / SNR (signal to noise ratio) / EC50: 24 h; for EC50: peptides 10^-5 M to 10^-12 M
T1 construct: expressed in transfected cells
T1 sequence (Q02643 23-423): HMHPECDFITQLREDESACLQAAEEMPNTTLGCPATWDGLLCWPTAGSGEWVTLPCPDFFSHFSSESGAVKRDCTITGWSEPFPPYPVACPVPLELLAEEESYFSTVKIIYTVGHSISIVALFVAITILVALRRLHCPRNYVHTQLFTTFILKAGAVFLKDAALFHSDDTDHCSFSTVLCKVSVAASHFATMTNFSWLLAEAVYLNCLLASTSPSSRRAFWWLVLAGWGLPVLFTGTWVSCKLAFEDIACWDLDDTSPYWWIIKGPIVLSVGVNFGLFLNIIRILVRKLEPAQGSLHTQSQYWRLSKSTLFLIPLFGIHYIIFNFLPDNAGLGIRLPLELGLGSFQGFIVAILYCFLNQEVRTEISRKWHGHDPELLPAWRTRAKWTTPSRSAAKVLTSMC
Method: BHK cells stably transfected with the human GRF receptor and an alkaline phosphatase reporter gene were plated in 96-well plates at 5×10^4 cells/well and incubated overnight. The next day, cells were washed twice with PBS and maintained for 10-30 min. in assay buffer (DMEM without phenol red, 20 mM HEPES and 1% heat-inactivated fetal bovine serum (FBS)). Peptides from 10^−5 M to 10^−12 M were added to the cells and incubated for 24 h. The alkaline phosphatase level in the culture supernatants were performed using the Alkaline Phosphatase detection kit from Invitrogen® (cat. #T1017).

[2] = tested on: GH secretion; assay: GH response in female Sprague-Dawley rats (plasma GH ELISA); type: in vivo, rat; conditions: for GH secretion in rats (in words) / AUC(0-60min) of GH / TMAX of GH / AUC(0-60 min) of GH, fold lower than TH9507 / Cmax of GH, fold lower than TH9507: female rats; for GH secretion in rats (in words) / AUC(0-60 min) of GH, fold lower than TH9507 / Cmax of GH, fold lower than TH9507: 10 μg/rat; for AUC(0-60min) of GH / TMAX of GH: 10 μg/rat subcutaneous, 5% mannitol
Method: The reporter gene assay was performed on baby hamster kidney (BHK) cells stably expressing the human GRF receptor and a cAMP-inducible alkaline phosphatase reporter gene; the peptides were tested at concentrations from 1 pM to 10 μM. Acute GH response was measured in blood samples obtained from female rats that were injected with 10 μg/rat peptides in 5% mannitol.
Sprague-Dawley rats (female, 250-300 g) were obtained from Charles River Inc. The animals were kept in groups of 4 rats per cage and were maintained on standard laboratory chow in 12:12 light:dark cycle.
On the day of the experiment, the animals were anesthetized with 2.5% isoflurane. A mid-section opening was made in the neck to expose the carotid artery. The carotid artery was cannulated with polypropylene tube (PE-50) for blood withdrawal. The rats were subcutaneously injected with the peptides (10 μg/rat) dissolved in formulation 5 (20 mM Sodium Acetate, 5% D-mannitol pH 5 (adjusted with AcOH). Blood samples (400 μL) were collected at pre-dose and at 5, 10, 15, 30 and 60 minutes after the injection into microtainer tubes containing K3EDTA and 25 μl of acidified Hank's buffered salt solution (AHBSS). The samples were immediately centrifuged in a microfuge for 2 minutes and the plasma was collected into screwcap Eppendorf™ tubes and quickly frozen in liquid nitrogen. The samples were kept at −80° C.
Rat plasma samples were thawed on ice, vortexed briefly to mix the contents and centrifuged at 9,000 RPM for 2 min at 4° C. GH levels were determined using the Rat/Mouse Growth Hormone ELISA kit from Millipore® (Cat. #EZRMGH-45K). Samples were diluted 10-fold with the assay buffer and 10 μl of the diluted samples were added along with 90 μl of assay buffer to the ELISA plate. The remainder of the assay was performed according to the manufacturer's protocol.
The standard curve was plotted using the 4-parameter logistic equation using GraphPad Prism™ software and was used to determine the GH concentration of plasma samples. The data were analyzed using one-way analysis of variance. Bonferroni's test was used to make comparisons among different treatments.

[3] = Formation of TH0601 from TH05111 or tesamorelin with and without HP-β-CD (FIG. 19); type: physicochemical; conditions: 8 mg/mL peptide, 10% HP-β-CD vs 5% mannitol, pH 6
Method: Isomerization of Asp^8 in the structure of TH05111 leads to formation of the tesamorelin degradant TH0601, which makes it possible to monitor degradation by using the same chromatographic conditions as for tesamorelin.
The comparison of the kinetics of TH0601 formation in the solutions containing 8 mg/mL of TH05111 or tesamorelin with and without HP-β-CD is shown in FIG. 19.

EC50 fold higher than TH9507 [1] | Emax [1] | SNR (signal to noise ratio) [1] | EC50 [1] | Isomerization of the Asp^8 residue in the presence of HP-β-CD [3] | Compound | In vitro potency compared to TH9507 (in words) [1] | GH secretion in rats (in words) [2] | AUC(0-60min) of GH [2] | TMAX of GH [2] | AUC(0-60 min) of GH, fold lower than TH9507 [2] | Cmax of GH, fold lower than TH9507 [2] | GH-releasing activity in vivo compared to parent molecule ([2]; relative to tesamorelin, FIG. 1)
– | – | – | – | – | CC/C=C/CC(=O)N[C@@H](Cc1ccc(O)cc1)C(=O)N[C@@H](C)C(=O)N[C@@H](CC(=O)O)C(=O)N[C@@H](C)C(=O)N[C@H](C(=O)N[C@@H](Cc1ccccc1)C(=O)N[C@H](C(=O)N[C@@H](CC(N)=O)C(=O)N[C@@H](CO)C(=O)N[C@@H](Cc1ccc(O)cc1)C(=O)N[C@@H](CCCNC(=N)N)C(=O)N[C@@H](CCCCN)C(=O)N[C@H](C(=O)N[C@@H](CC(C)C)C(=O)NCC(=O)N[C@@H](CCC(N)=O)C(=O)N[C@@H](CC(C)C)C(=O)N[C@@H](CO)C(=O)N[C@@H](C)C(=O)N[C@@H](CCCNC(=N)N)C(=O)N[C@@H](CCCCN)C(=O)N[C@@H](CC(C)C)C(=O)N[C@@H](CC(C)C)C(=O)N[C@@H](CCC(N)=O)C(=O)N[C@@H](CC(=O)O)C(=O)N[C@H](C(=O)N[C@@H](CC[S+](C)[O-])C(=O)N[C@@H](CO)C(=O)N[C@@H](CCCNC(=N)N)C(=O)N[C@@H](CCC(N)=O)C(=O)N[C@@H](CCC(N)=O)C(=O)NCC(=O)N[C@@H](CCC(=O)O)C(=O)N[C@@H](CO)C(=O)N[C@@H](CC(N)=O)C(=O)N[C@@H](CCC(N)=O)C(=O)N[C@@H](CCC(=O)O)C(=O)N[C@@H](CCCNC(=N)N)C(=O)NCC(=O)N[C@@H](C)C(=O)N[C@@H](CCCNC(=N)N)C(=O)N[C@@H](C)C(=O)N[C@@H](CCCNC(=N)N)C(=O)N[C@@H](CC(C)C)C(N)=O)[C@@H](C)CC)C(C)C)[C@@H](C)O)[C@@H](C)CC (some centres unmarked) [TH0286, N-Hex-hGRF[1-44]Met[O]27 amide] | comparable to TH9507 | not significantly different | 14751 ± 5745 ng·min/mL | 10 min | – | – | –
71 fold | 116 ± 25.8% | 25.9 | – | – | CC/C=C/CC(=O)N[C@@H](Cc1ccc(O)cc1)C(=O)N[C@@H](C)C(=O)N[C@@H](CC(=O)N[C@@H](C)C(=O)N[C@H](C(=O)N[C@@H](Cc1ccccc1)C(=O)N[C@H](C(=O)N[C@@H](CC(N)=O)C(=O)N[C@@H](CO)C(=O)N[C@@H](Cc1ccc(O)cc1)C(=O)N[C@@H](CCCNC(=N)N)C(=O)N[C@@H](CCCCN)C(=O)N[C@H](C(=O)N[C@@H](CC(C)C)C(=O)NCC(=O)N[C@@H](CCC(N)=O)C(=O)N[C@@H](CC(C)C)C(=O)N[C@@H](CO)C(=O)N[C@@H](C)C(=O)N[C@@H](CCCNC(=N)N)C(=O)N[C@@H](CCCCN)C(=O)N[C@@H](CC(C)C)C(=O)N[C@@H](CC(C)C)C(=O)N[C@@H](CCC(N)=O)C(=O)N[C@@H](CC(=O)O)C(=O)N[C@H](C(=O)N[C@@H](CCSC)C(=O)N[C@@H](CO)C(=O)N[C@@H](CCCNC(=N)N)C(=O)N[C@@H](CCC(N)=O)C(=O)N[C@@H](CCC(N)=O)C(=O)NCC(=O)N[C@@H](CCC(=O)O)C(=O)N[C@@H](CO)C(=O)N[C@@H](CC(N)=O)C(=O)N[C@@H](CCC(N)=O)C(=O)N[C@@H](CCC(=O)O)C(=O)N[C@@H](CCCNC(=N)N)C(=O)NCC(=O)N[C@@H](C)C(=O)N[C@@H](CCCNC(=N)N)C(=O)N[C@@H](C)C(=O)N[C@@H](CCCNC(=N)N)C(=O)N[C@@H](CC(C)C)C(N)=O)[C@@H](C)CC)C(C)C)[C@@H](C)O)[C@@H](C)CC)C(=O)O [TH0677, β-Asp^3 tesamorelin] | – | did not produce GH; also recorded: did not stimulate GH secretion; also recorded: biologically inactive | – | – | – | – | –
– | 95.7 ± 8.1% | – | – | – | CC/C=C/CC(=O)N[C@@H](Cc1ccc(O)cc1)C(=O)N[C@@H](C)C(=O)N[C@H]1CC(=O)N([C@@H](C)C(=O)N[C@H](C(=O)N[C@@H](Cc2ccccc2)C(=O)N[C@H](C(=O)N[C@@H](CC(N)=O)C(=O)N[C@@H](CO)C(=O)N[C@@H](Cc2ccc(O)cc2)C(=O)N[C@@H](CCCNC(=N)N)C(=O)N[C@@H](CCCCN)C(=O)N[C@H](C(=O)N[C@@H](CC(C)C)C(=O)NCC(=O)N[C@@H](CCC(N)=O)C(=O)N[C@@H](CC(C)C)C(=O)N[C@@H](CO)C(=O)N[C@@H](C)C(=O)N[C@@H](CCCNC(=N)N)C(=O)N[C@@H](CCCCN)C(=O)N[C@@H](CC(C)C)C(=O)N[C@@H](CC(C)C)C(=O)N[C@@H](CCC(N)=O)C(=O)N[C@@H](CC(=O)O)C(=O)N[C@H](C(=O)N[C@@H](CCSC)C(=O)N[C@@H](CO)C(=O)N[C@@H](CCCNC(=N)N)C(=O)N[C@@H](CCC(N)=O)C(=O)N[C@@H](CCC(N)=O)C(=O)NCC(=O)N[C@@H](CCC(=O)O)C(=O)N[C@@H](CO)C(=O)N[C@@H](CC(N)=O)C(=O)N[C@@H](CCC(N)=O)C(=O)N[C@@H](CCC(=O)O)C(=O)N[C@@H](CCCNC(=N)N)C(=O)NCC(=O)N[C@@H](C)C(=O)N[C@@H](CCCNC(=N)N)C(=O)N[C@@H](C)C(=O)N[C@@H](CCCNC(=N)N)C(=O)N[C@@H](CC(C)C)C(N)=O)[C@@H](C)CC)C(C)C)[C@@H](C)O)[C@@H](C)CC)C1=O [TH1063, Asu^3 tesamorelin] | – | – | – | – | – | – | –
– | 100 ± 11.3% | 22.3 | – | – | CC/C=C/CC(=O)N[C@@H](Cc1ccc(O)cc1)C(=O)N[C@@H](C)C(=O)N[C@@H](CC(=O)O)C(=O)N[C@@H](C)C(=O)N[C@H](C(=O)N[C@@H](Cc1ccccc1)C(=O)N[C@H](C(=O)N[C@@H](CC(N)=O)C(=O)N[C@@H](CO)C(=O)N[C@@H](Cc1ccc(O)cc1)C(=O)N[C@@H](CCCNC(=N)N)C(=O)N[C@@H](CCCCN)C(=O)N[C@H](C(=O)N[C@@H](CC(C)C)C(=O)NCC(=O)N[C@@H](CCC(N)=O)C(=O)N[C@@H](CC(C)C)C(=O)N[C@@H](CO)C(=O)N[C@@H](C)C(=O)N[C@@H](CCCNC(=N)N)C(=O)N[C@@H](CCCCN)C(=O)N[C@@H](CC(C)C)C(=O)N[C@@H](CC(C)C)C(=O)N[C@@H](CCC(N)=O)C(=O)N[C@@H](CC(=O)O)C(=O)N[C@H](C(=O)N[C@@H](CCSC)C(=O)N[C@@H](CO)C(=O)N[C@@H](CCCNC(=N)N)C(=O)N[C@@H](CCC(N)=O)C(=O)N[C@@H](CCC(N)=O)C(=O)NCC(=O)N[C@@H](CCC(=O)O)C(=O)N[C@@H](CO)C(=O)N[C@@H](CC(N)=O)C(=O)N[C@@H](CCC(N)=O)C(=O)N[C@@H](CCC(=O)O)C(=O)N[C@@H](CCCNC(=N)N)C(=O)NCC(=O)N[C@@H](C)C(=O)N[C@@H](CCCNC(=N)N)C(=O)N[C@@H](C)C(=O)N[C@@H](CCCNC(=N)N)C(=O)N[C@@H](CC(C)C)C(N)=O)[C@@H](C)CC)C(C)C)[C@@H](C)O)[C@@H](C)CC [TH9507, [trans-3-hexenoyl]hGRF (1-44) amide] | – | – | 18953 ± 6317 ng·min/mL | 10 min | – | – | –
– | 114 ± 17% | 25.3 | 0.08 ± 0.02 nM | facilitated | {Hexenoyl(3E)}-YADAIFTDSYRKVLGQLSARKLLQDIMSRQQGESNQERGARARL-NH2 [TH05111, Asp^8 tesamorelin] | comparable to TH9507; also recorded: equipotent | – | 6540 ± 2647 ng·min/mL | 5 min | 2.9 fold | 2.2 fold | ~30%
500 fold | 120 ± 23.5% | 26.9 | 30 ± 30.4 nM | – | {Hexenoyl(3E)}-YADAIFT[βAsp]SYRKVLGQLSARKLLQDIMSRQQGESNQERGARARL-NH2 [TH0601, β-Asp^8 tesamorelin] | – | biologically inactive | 1533 ± 734 ng·min/mL | 5 min | 12.4 fold | 14.0 fold | –
